Test results reported in the NIST ThermoML archive (doi:10.1021/je200721d).

Test: xn = mol fraction of the nth substance listed
Conditions: Liquid, Vibrating tube method

CCCCCCCCCC [decane] + CCCCCC
Conditions | mass density [kg/m3]
323.14 K, 13000 kPa, x2 = 0.2185 | 707.88
323.14 K, 13000 kPa, x2 = 0.4968 | 691.97
323.14 K, 14000 kPa, x2 = 0.0456 | 717.02
323.14 K, 14000 kPa, x2 = 0.2185 | 708.71
323.14 K, 14000 kPa, x2 = 0.4968 | 692.85
323.14 K, 15000 kPa, x2 = 0.0456 | 717.82
323.14 K, 15000 kPa, x2 = 0.2185 | 709.54
323.14 K, 15000 kPa, x2 = 0.4968 | 693.71
323.14 K, 16000 kPa, x2 = 0.0456 | 718.6
323.14 K, 16000 kPa, x2 = 0.2185 | 710.33
323.14 K, 16000 kPa, x2 = 0.4968 | 694.57
323.14 K, 17000 kPa, x2 = 0.0456 | 719.38
323.14 K, 17000 kPa, x2 = 0.2185 | 711.14
323.14 K, 17000 kPa, x2 = 0.4968 | 695.4
323.14 K, 18000 kPa, x2 = 0.0456 | 720.14
323.14 K, 18000 kPa, x2 = 0.2185 | 711.93
323.14 K, 18000 kPa, x2 = 0.4968 | 696.25
323.14 K, 19000 kPa, x2 = 0.0456 | 720.9
323.14 K, 19000 kPa, x2 = 0.2185 | 712.7
323.14 K, 19000 kPa, x2 = 0.4968 | 697.05
323.14 K, 20000 kPa, x2 = 0.0456 | 721.64
323.14 K, 20000 kPa, x2 = 0.2185 | 713.47
323.14 K, 20000 kPa, x2 = 0.4968 | 697.87
323.14 K, 21000 kPa, x2 = 0.0456 | 722.37
323.14 K, 21000 kPa, x2 = 0.2185 | 714.23
323.14 K, 21000 kPa, x2 = 0.4968 | 698.66
323.14 K, 22000 kPa, x2 = 0.0456 | 723.1
323.14 K, 22000 kPa, x2 = 0.2185 | 714.97
323.14 K, 22000 kPa, x2 = 0.4968 | 699.42
323.14 K, 23000 kPa, x2 = 0.0456 | 723.81
323.14 K, 23000 kPa, x2 = 0.2185 | 715.7
323.14 K, 23000 kPa, x2 = 0.4968 | 700.17
323.14 K, 24000 kPa, x2 = 0.0456 | 724.52
323.14 K, 24000 kPa, x2 = 0.2185 | 716.43
323.14 K, 24000 kPa, x2 = 0.4968 | 700.91
323.14 K, 25000 kPa, x2 = 0.0456 | 725.21
323.14 K, 25000 kPa, x2 = 0.2185 | 717.13
323.14 K, 25000 kPa, x2 = 0.4968 | 701.65
323.16 K, 1000 kPa, x2 = 0.7524 | 659.51
323.16 K, 2000 kPa, x2 = 0.7524 | 660.73
323.16 K, 3000 kPa, x2 = 0.7524 | 661.92
323.16 K, 4000 kPa, x2 = 0.7524 | 663.04
323.16 K, 5000 kPa, x2 = 0.7524 | 664.17
323.16 K, 6000 kPa, x2 = 0.7524 | 665.29
323.16 K, 7000 kPa, x2 = 0.7524 | 666.38
323.16 K, 8000 kPa, x2 = 0.7524 | 667.43
323.16 K, 9000 kPa, x2 = 0.7524 | 668.5
323.16 K, 10000 kPa, x2 = 0.7524 | 669.53
323.16 K, 10990 kPa, x2 = 0.7524 | 670.57
323.16 K, 12000 kPa, x2 = 0.7524 | 671.56
323.16 K, 13000 kPa, x2 = 0.7524 | 672.52
323.16 K, 14000 kPa, x2 = 0.7524 | 673.49
323.16 K, 15000 kPa, x2 = 0.7524 | 674.44
323.16 K, 16000 kPa, x2 = 0.7524 | 675.39
323.16 K, 17000 kPa, x2 = 0.7524 | 676.32
323.16 K, 18000 kPa, x2 = 0.7524 | 677.22
323.16 K, 19000 kPa, x2 = 0.7524 | 678.11
323.16 K, 20000 kPa, x2 = 0.7524 | 678.99
323.16 K, 21000 kPa, x2 = 0.7524 | 679.85
323.16 K, 22000 kPa, x2 = 0.7524 | 680.67
323.16 K, 23000 kPa, x2 = 0.7524 | 681.51
323.16 K, 24000 kPa, x2 = 0.7524 | 682.33
323.16 K, 25000 kPa, x2 = 0.7524 | 683.11
332.58 K, 1000 kPa, x2 = 0.4968 | 671.98
332.58 K, 2000 kPa, x2 = 0.4968 | 673.11
332.58 K, 3000 kPa, x2 = 0.4968 | 674.24
332.58 K, 4000 kPa, x2 = 0.4968 | 675.37
332.58 K, 5000 kPa, x2 = 0.4968 | 676.46
332.58 K, 6000 kPa, x2 = 0.4968 | 677.53
332.58 K, 7000 kPa, x2 = 0.4968 | 678.61
332.58 K, 8000 kPa, x2 = 0.4968 | 679.66
332.58 K, 9000 kPa, x2 = 0.4968 | 680.68
332.58 K, 10000 kPa, x2 = 0.4968 | 681.7
332.58 K, 10990 kPa, x2 = 0.4968 | 682.69
332.58 K, 12000 kPa, x2 = 0.4968 | 683.66
332.58 K, 13000 kPa, x2 = 0.4968 | 684.64
332.58 K, 14000 kPa, x2 = 0.4968 | 685.59
332.58 K, 15000 kPa, x2 = 0.4968 | 686.54
332.58 K, 16000 kPa, x2 = 0.4968 | 687.44
332.58 K, 17000 kPa, x2 = 0.4968 | 688.35
332.58 K, 18000 kPa, x2 = 0.4968 | 689.24
332.58 K, 19000 kPa, x2 = 0.4968 | 690.12
332.58 K, 20000 kPa, x2 = 0.4968 | 690.99
332.58 K, 21000 kPa, x2 = 0.4968 | 691.85
332.58 K, 22000 kPa, x2 = 0.4968 | 692.69
332.58 K, 23000 kPa, x2 = 0.4968 | 693.52
332.58 K, 24000 kPa, x2 = 0.4968 | 694.34
332.58 K, 25000 kPa, x2 = 0.4968 | 695.13
332.93 K, 1000 kPa, x2 = 0.8991 | 636.12
332.93 K, 2000 kPa, x2 = 0.8991 | 637.35
332.93 K, 3000 kPa, x2 = 0.8991 | 638.61
332.93 K, 4000 kPa, x2 = 0.8991 | 639.84
332.93 K, 5000 kPa, x2 = 0.8991 | 641.09
332.93 K, 6000 kPa, x2 = 0.8991 | 642.3
